Experiments:
Glutamate NMDA receptor = experiment: Inhibition of [3H]dizocilpine binding to N-methyl-D-aspartate (NMDA) receptor complex in rat brain membranes; type: cell membranes
Rattus norvegicus [1] = organism: Rattus norvegicus; experiment: Inhibitory activity (1.0 uM) against NMDA (30 uM) and glycine (10 uM) induced increase in [Ca2+]i in cultured forebrain neurons from fetal rat; type: functional; parameters: scale not given: the % may be the effect or the level left
Rattus norvegicus [2] = organism: Rattus norvegicus; experiment: Protective potency against glutamate-induced neurotoxicity in cultures of embryonic rat brain at a compound concentration of 10 uM; type: functional
Rattus norvegicus [3] = organism: Rattus norvegicus; experiment: Inhibitory activity (10.0 uM) against NMDA (30 uM) and glycine (10 uM) induced increase in [Ca2+]i in cultured forebrain neurons from fetal rat; type: functional; parameters: scale not given: the % may be the effect or the level left
Rattus norvegicus [4] = organism: Rattus norvegicus; experiment: Protective potency against glutamate-induced neurotoxicity in cultures of embryonic rat brain at a compound concentration of 100 uM; type: functional
Rattus norvegicus [5] = organism: Rattus norvegicus; experiment: Protective potency against glutamate-induced neurotoxicity in cultures of embryonic rat brain at a compound concentration of 10 uM+Glutamate (100 uM); type: functional
Rattus norvegicus [6] = organism: Rattus norvegicus; experiment: Protective potency against glutamate-induced neurotoxicity in cultures of embryonic rat brain at a concentration of 100 uM+Glutamate (100 uM); type: functional
Rattus norvegicus [7] = organism: Rattus norvegicus; experiment: Inhibitory activity (0.1 uM) against NMDA (30 uM) and glycine (10 uM) induced increase in [Ca2+]i in cultured forebrain neurons from fetal rat; type: functional; parameters: scale not given: the % may be the effect or the level left
Rattus norvegicus [8] = organism: Rattus norvegicus; experiment: Protective potency against glutamate-induced neurotoxicity in cultures of embryonic rat brain at a concentration of 100 uM (p < 0.05); type: functional

IC50 (Glutamate NMDA receptor) [µM]	SMILES	other results
45.8	N#Cc1ccc(N2CCCN(c3ccc(C#N)cc3)CC2)cc1	–
8.35	C(=C1/CCCN(c2ccc(C3=NCCN3)cc2)C1)/c1ccc(C2=NCCN2)cc1	–
16.5	c1cc(C2=NCCN2)ccc1OC[C@@H]1C[C@H]1COc1ccc(C2=NCCN2)cc1	–
11.7	N=C(N)c1ccc(OC[C@@H]2C[C@H]2COc2ccc(C(=N)N)cc2)cc1	–
1.19	N=C(N)c1ccc(N2CCCN(c3ccc(C(=N)N)cc3)CC2)cc1	Activity (Rattus norvegicus [1]): 67.04%; Activity (Rattus norvegicus [2]): 100%; Activity (Rattus norvegicus [3]): 37.58%; Activity (Rattus norvegicus [4]): 87%; Activity (Rattus norvegicus [5]): 99%; Activity (Rattus norvegicus [6]): 98%; Activity (Rattus norvegicus [7]): 111.26%
35.6	C(=C1CCN(Cc2ccc(C3=NCCN3)cc2)CC1)c1ccc(C2=NCCN2)cc1	–
18.2	c1cc(N2CCN(c3ccc(C4=NCCN4)cc3)CC2)ccc1C1=NCCN1	–
5.32	N=C(N)c1ccc(N2CCN(c3ccc(C(=N)N)cc3)CC2)cc1	–
4.99	c1cc(N2CCCN(c3ccc(C4=NCCN4)cc3)CC2)ccc1C1=NCCN1	–
> 200	N=C(N)c1ccc(NC(=O)c2cccc(C(=O)Nc3ccc(C(=N)N)cc3)c2)cc1	–
6.29	c1cc(C2=NCCN2)ccc1CC1CCN(c2ccc(C3=NCCN3)cc2)CC1	–
7.84	c1cc(C2=NCCN2)ccc1CC1CCCN(c2ccc(C3=NCCN3)cc2)C1 (configuration not stated)	–
66	N=C(N)c1ccc(NC(=O)c2cccc(C(=O)Nc3ccc(C(=N)N)cc3)n2)cc1	–
–	N[C@@H](CCC(=O)O)C(=O)O [GLUTAMIC ACID]	Activity (Rattus norvegicus [8]): 60%
2.59	N=C(N)c1ccc(OCCCCCOc2ccc(C(=N)N)cc2)cc1 [PENTAMIDINE]	–

Source: ChEMBL document CHEMBL1132046, “Novel bisbenzamidines and bisbenzimidazolines as noncompetitive NMDA receptor antagonists” (Bioorg Med Chem Lett, 1999)
